Active and inactive are the calls of the source. No cut-off for these calls is given here.
Key:
[1] = tested on: Echinochloa oryzicola; assay: Herbicidal activity against Echinochloa oryzicola under greenhouse condition assessed as growth inhibition at 125 g /ha measured after 20 days; type: functional, organism-based
[2] = tested on: Cyperus serotinus; assay: Herbicidal activity against Cyperus serotinus at 1000 g /ha treated at 1 to 1.5-leaf stage measured after 26 days by outdoor concrete pot test; type: functional, organism-based
[3] = tested on: Echinochloa oryzicola; assay: Herbicidal activity against Echinochloa oryzicola under greenhouse condition assessed as growth inhibition at 250 g /ha measured after 42 days; type: functional, organism-based
[4] = tested on: Sagittaria pygmaea; assay: Herbicidal activity against Sagittaria pygmaea at 1000 g /ha treated at 0.5 to 1-leaf stage measured after 26 days by outdoor concrete pot test; type: functional, organism-based
[5] = tested on: Schoenoplectiella juncoides; assay: Herbicidal activity against Schoenoplectiella juncoides at 500 g /ha treated at 1.5 to 2.1-leaf stage measured after 26 days by outdoor concrete pot test; type: functional, organism-based
[6] = tested on: Lindernia procumbens; assay: Herbicidal activity against Lindernia procumbens at 500 g /ha treated at 1 to 2-pairs of leaf stage measured after 26 days by outdoor concrete pot test; type: functional, organism-based
[7] = tested on: Echinochloa oryzicola; assay: Herbicidal activity against Echinochloa oryzicola under greenhouse condition assessed as growth inhibition at 125 g /ha measured after 33 days; type: functional, organism-based
[8] = tested on: Echinochloa oryzicola; assay: Herbicidal activity against Echinochloa oryzicola grown in water-drained pot under greenhouse condition assessed as growth inhibition at 500 g /ha measured after 33 days; type: functional, organism-based
[9] = tested on: Sagittaria pygmaea; assay: Herbicidal activity against Sagittaria pygmaea at 500 g /ha treated at 0.5 to 1-leaf stage measured after 26 days by outdoor concrete pot test; type: functional, organism-based
[10] = tested on: Echinochloa oryzicola; assay: Herbicidal activity against Echinochloa oryzicola under greenhouse condition assessed as growth inhibition at 1000 g /ha measured after 33 days; type: functional, organism-based
[11] = tested on: Elatine triandra; assay: Herbicidal activity against Elatine triandra at 250 g /ha treated at 1 to 2-pairs of leaf stage measured after 26 days by outdoor concrete pot test; type: functional, organism-based
[12] = tested on: Echinochloa oryzicola; assay: Herbicidal activity against Echinochloa oryzicola grown in water-drained pot under greenhouse condition assessed as growth inhibition at 125 g /ha measured after 20 days; type: functional, organism-based
[13] = tested on: Rotala indica; assay: Herbicidal activity against Rotala indica at 250 g /ha treated at 1 to 2-pairs of leaf stage measured after 26 days by outdoor concrete pot test; type: functional, organism-based
[14] = tested on: Echinochloa oryzicola; assay: Herbicidal activity against Echinochloa oryzicola under greenhouse condition assessed as growth inhibition at 125 g /ha measured after 27 days; type: functional, organism-based
[15] = tested on: Echinochloa oryzicola; assay: Herbicidal activity against Echinochloa oryzicola under greenhouse condition assessed as growth inhibition at 500 g /ha measured after 33 days; type: functional, organism-based
[16] = tested on: Schoenoplectiella juncoides; assay: Herbicidal activity against Schoenoplectiella juncoides at 250 g /ha treated at 1.5 to 2.1-leaf stage measured after 26 days by outdoor concrete pot test; type: functional, organism-based
[17] = tested on: Echinochloa oryzicola; assay: Herbicidal activity against Echinochloa oryzicola under greenhouse condition assessed as growth inhibition at 500 g /ha measured after 13 days; type: functional, organism-based
[18] = tested on: Echinochloa oryzicola; assay: Herbicide activity against Echinochloa oryzicola under greenhouse condition compound treated at 2 leaf-stage measured after 14 to 20 days; type: functional
[19] = tested on: Schoenoplectiella juncoides; assay: Herbicide activity against Schoenoplectiella juncoides under greenhouse condition compound treated at emergence-stage measured after 14 to 20 days; type: functional
[20] = tested on: Echinochloa oryzicola; assay: Herbicidal activity against Echinochloa oryzicola under greenhouse condition assessed as growth inhibition at 125 g /ha measured after 13 days; type: functional, organism-based
[21] = tested on: Pontederia vaginalis; assay: Herbicidal activity against Monochoria vaginalis at 500 g /ha treated at 1.5 to 2-leaf stage measured after 26 days by outdoor concrete pot test; type: functional, organism-based
[22] = tested on: Echinochloa oryzicola; assay: Herbicidal activity against Echinochloa oryzicola under greenhouse condition assessed as growth inhibition at 500 g /ha measured after 27 days; type: functional, organism-based
[23] = tested on: Elatine triandra; assay: Herbicidal activity against Elatine triandra at 500 g /ha treated at 1 to 2-pairs of leaf stage measured after 26 days by outdoor concrete pot test; type: functional, organism-based
[24] = tested on: Echinochloa oryzicola; assay: Herbicidal activity against Echinochloa oryzicola grown in water-drained pot under greenhouse condition assessed as growth inhibition at 125 g /ha measured after 33 days; type: functional, organism-based
[25] = tested on: Rotala indica; assay: Herbicidal activity against Rotala indica at 500 g /ha treated at 1 to 2-pairs of leaf stage measured after 26 days by outdoor concrete pot test; type: functional, organism-based
[26] = tested on: Echinochloa oryzicola; assay: Herbicidal activity against Echinochloa oryzicola under greenhouse condition assessed as time duration of residual effect at 125 g /ha; type: functional
[27] = tested on: Cyperus serotinus; assay: Herbicidal activity against Cyperus serotinus at 250 g /ha treated at 1 to 1.5-leaf stage measured after 26 days by outdoor concrete pot test; type: functional, organism-based
[28] = tested on: Echinochloa oryzicola; assay: Herbicidal activity against Echinochloa oryzicola under greenhouse condition assessed as growth inhibition at 500 g /ha measured after 6 days; type: functional, organism-based
[29] = tested on: Echinochloa oryzicola; assay: Herbicidal activity against Echinochloa oryzicola grown in water-drained pot under greenhouse condition assessed as growth inhibition at 500 g /ha measured after 27 days; type: functional, organism-based
[30] = tested on: Echinochloa oryzicola; assay: Herbicidal activity against Echinochloa oryzicola grown in water-drained pot under greenhouse condition assessed as growth inhibition at 125 g /ha measured after 27 days; type: functional, organism-based
[31] = tested on: Echinochloa oryzicola; assay: Herbicidal activity against Echinochloa oryzicola under greenhouse condition assessed as growth inhibition at 500 g /ha measured after 20 days; type: functional, organism-based
[32] = tested on: Oryza sativa; assay: Phytotoxicity against two-leaf stage Oryza sativa cv. Nihonbare (rice) planted 1 cm depth measured after […]; type: organism-based; conditions: in vivo
[33] = tested on: Echinochloa oryzicola; assay: Herbicidal activity against Echinochloa oryzicola under greenhouse condition assessed as growth inhibition at 1000 g /ha measured after 13 days; type: functional, organism-based
[34] = tested on: Echinochloa oryzicola; assay: Herbicidal activity against Echinochloa oryzicola under greenhouse condition assessed as growth inhibition at 1000 g /ha measured after 27 days; type: functional, organism-based
[35] = tested on: Echinochloa oryzicola; assay: Herbicidal activity against Echinochloa oryzicola grown in water-drained pot under greenhouse condition assessed as time duration of residual effect at 125 g /ha; type: functional
[36] = tested on: Lindernia procumbens; assay: Herbicidal activity against Lindernia procumbens at 250 g /ha treated at 1 to 2-pairs of leaf stage measured after 26 days by outdoor concrete pot test; type: functional, organism-based
[37] = tested on: Echinochloa oryzicola; assay: Herbicidal activity against Echinochloa oryzicola grown in water-drained pot under greenhouse condition assessed as growth inhibition at 125 g /ha measured after 42 days; type: functional, organism-based
[38] = tested on: Elatine triandra; assay: Herbicidal activity against Elatine triandra at 1000 g /ha treated at 1 to 2-pairs of leaf stage measured after 26 days by outdoor concrete pot test; type: functional, organism-based
[39] = tested on: Sagittaria pygmaea; assay: Herbicide activity against Sagittaria pygmaea under greenhouse condition compound treated at 0.5 leaf-stage measured after 14 to 20 days; type: functional
[40] = tested on: Echinochloa oryzicola; assay: Herbicidal activity against Echinochloa oryzicola grown in water-drained pot under greenhouse condition assessed as growth inhibition at 500 g /ha measured after 20 days; type: functional, organism-based
[41] = tested on: Echinochloa oryzicola; assay: Herbicidal activity against Echinochloa oryzicola at 500 g /ha treated at 1.5 to 2-leaf stage measured after 26 days by outdoor concrete pot test; type: functional, organism-based
[42] = tested on: Rotala indica; assay: Herbicidal activity against Rotala indica at 1000 g /ha treated at 1 to 2-pairs of leaf stage measured after 26 days by outdoor concrete pot test; type: functional, organism-based
[43] = tested on: Schoenoplectiella juncoides; assay: Herbicidal activity against Schoenoplectiella juncoides at 1000 g /ha treated at 1.5 to 2.1-leaf stage measured after 26 days by outdoor concrete pot test; type: functional, organism-based
[44] = tested on: Echinochloa oryzicola; assay: Herbicidal activity against Echinochloa oryzicola under greenhouse condition assessed as growth inhibition at 125 g /ha measured after 42 days; type: functional, organism-based
[45] = tested on: Pontederia vaginalis; assay: Herbicidal activity against Monochoria vaginalis at 250 g /ha treated at 1.5 to 2-leaf stage measured after 26 days by outdoor concrete pot test; type: functional, organism-based

CC1=C(c2ccccc2)C(=O)N(C(C)(C)c2nc3ccccc3s2)C1 was tested, and the “growth inhibition (GI)” value [1] was “Active”, the “growth inhibition (GI)” value [2] was “Active” and the “growth inhibition (GI)” value [3] was “inactive”. The “growth inhibition (GI)” value [4] was “Active”, the “growth inhibition (GI)” value [5] was “inactive” and the “growth inhibition (GI)” value [6] was “Active”. For the same molecule, the “growth inhibition (GI)” value [7] was “Active”, the “growth inhibition (GI)” value [8] was “Active” and the “growth inhibition (GI)” value [9] was “Active”. For the same molecule, the “growth inhibition (GI)” value [10] was “Active”, the “growth inhibition (GI)” value [11] was “Active” and the “growth inhibition (GI)” value [12] was “inactive”. The “growth inhibition (GI)” value [13] was “Active”, the “growth inhibition (GI)” value [14] was “Active” and the “growth inhibition (GI)” value [15] was “Active”. For the same molecule, the “growth inhibition (GI)” value [16] was “inactive”, the “growth inhibition (GI)” value [17] was “Active” and the MED [18] was 1.25 g/acre. For the same molecule, the MED [19] was 20 g/acre, the “growth inhibition (GI)” value [20] was “Active” and the “growth inhibition (GI)” value [21] was “Active”. The “growth inhibition (GI)” value [22] was “Active”, the “growth inhibition (GI)” value [23] was “Active” and the “growth inhibition (GI)” value [24] was “inactive”. For the same molecule, the “growth inhibition (GI)” value [25] was “Active”, the Time [26] was 30 days and the “growth inhibition (GI)” value [27] was “Active”. For the same molecule, the “growth inhibition (GI)” value [28] was “Active”, the “growth inhibition (GI)” value [29] was “Active” and the “growth inhibition (GI)” value [30] was “inactive”. The “growth inhibition (GI)” value [31] was “Active”, the MTD [32] was 2.5 g/acre and the “growth inhibition (GI)” value [33] was “Active”. The “growth inhibition (GI)” value [34] was “Active”, the Time [35] was 27 days and the “growth inhibition (GI)” value [36] was “Active”. The “growth inhibition (GI)” value [37] was “inactive”, the “growth inhibition (GI)” value [38] was “Active” and the MED [39] was 20 g/acre. For the same molecule, the “growth inhibition (GI)” value [40] was “Active”, the “growth inhibition (GI)” value [41] was “Active” and the “growth inhibition (GI)” value [42] was “Active”. The “growth inhibition (GI)” value [43] was “inactive”, the “growth inhibition (GI)” value [44] was “Active” and the “growth inhibition (GI)” value [45] was “inactive”.

Reference: ChEMBL document CHEMBL3046147, “Synthesis and Herbicidal Activity of 1-Arylalkyl-3-pyrrolin-2-one Derivatives” (J Pestic Sci, 2000)
